From patent publication US8012481B2, “Composition and method for inducing or restoring locomotor functions in an animal” (Universite Laval, priority 2004, dated 2011)

How the values were obtained:
Format in all cases: in vivo, mouse
[1] = tested on: paraplegic mice (lumbar spinal cord circuitry for hindlimb locomotion); assay: Hindlimb movement generation (LM/NLM) on a motor-driven treadmill in complete spinal cord transected mice; conditions: for mice in which a mixture of LM and NLM was induced: 7 animals/group; for induction of LM: some NLM were found
[2] = tested on: paraplegic mice; assay: Hindlimb movement generation in paraplegic mice, air-stepping and/or treadmill not separated; BBB and AOB scales; conditions: for induction of LM / induction of NLM: increasing doses, air-stepping and treadmill conditions, FIG. 13; for effect of 5-HT1A antagonist pretreatment on 8-OH-DPAT-induced LM: antagonist 2 mg/kg
Description: Animals and Treatment. We tested one hundred and ninety five (n=195) male and female adult CD1 and C57BL/6 mice weighing 30-40 grams prior to the study (Charles River Laboratory, St-Constant, Canada). […] Animals were spinalized 7 days prior to testing (exceptionally tested sometimes at 15 days post-spinalization, e.g., FIG. 17). A complete transection of the spinal cord was performed intervertebrally between the 9th and 10th vertebrae in isoflurane (2.5%) anesthetized animals. Complete spinalization was confirmed by 1) full paralysis of the hindlimbs, 2) post-mortem examination of the spinal cord microscopically and, in some cases, 3) staining transverse or sagittal spinal cord sections with luxol fast blue/cresyl violet for myelinated axons and nissl substance respectively. All mice received pre-operative care and post-operative care including lactate-Ringer's solution (2 ml/day, s.c.), analgesic (buprenorphine 0.2 mg/kg/day, s.c.) and antibiotic (baytril 5 mg/kg/day, s.c.). Bladders were emptied manually and animals were left in their cage without other interventions with food and water ad libitum until testing. Mice received a single injection (i.p.) of either 8-OHDPAT (5-HT1A/7); 5-CT (5-HT1A/7 agonist); buspirone (5-HT1A agonist); TFMPP (5-HT1B/2C agonist); quipazine (5-HT2B/2C); m-CPP (5-HT2B/2C agonist); SR-57227A (5-HT3) one week post-spinalization. […] The contribution of spinal 5-HT4/5/6 receptor activation to hindlimb movement generation in spinalized animals were not tested either because selective ligands are not available or because no significant expression levels have been found for these receptor subtypes in the mammalian spinal cord (see Schmidt and Jordan, Brain Res Bull 2000).
Hindlimb movement recording. Hindlimb movements were filmed (digital video camera 3 Com Home-connect, 30 frames/sec) immediately prior to injection and at fixed delays after injection in animals either suspended (air-stepping condition) or placed on a treadmill running at a speed of 8-10 cm/sec (treadmill condition). A harness was put around the torso and the waist either to completely suspend animals (air-stepping) or to maintain them in front of the camera on the treadmill (not weight support was provided). Animals were not stimulated otherwise. Locomotor-like movements were defined as rhythmic flexions and extensions occurring in both hindlimbs alternatively. Body weight support and plantar foot placement were facultative and therefore not required to be counted as locomotor-like (LM). In turn, non-locomotor movements (NLM) were defined as non-bilaterally alternating hindlimb movements most often including spasms, kicks, uncoordinated or unilateral movements, etc. In some cases, qualitative assessment methods were used to evaluate the level of induced hindlimb movements. The BBB locomotor scale (Basso, Bresnahan and Beattie, Exp Neurol 1996) and the AOB motor scale (Antri, Orsal and Barthe, Eur J Neurosci 2002) were also occasionally used.

[3] = tested on: paraplegic mice; assay: Hindlimb movement generation in the air-stepping condition (suspended) in spinal cord transected mice
Source text: Animals and Treatment. Twenty-nine (n=29) male and female adult CD1 mice weighing 30-40 grams prior to the study (Charles River Laboratory, St-Constant, Canada). […] Animals were spinalized 7 days prior to testing. […] Bladders were emptied manually and animals were left in their cage without other interventions with food and water ad libitum until testing. […] A harness was put around the torso and the waist either to completely suspend animals (air-stepping) or to maintain them in front of the camera on the treadmill (not weight support was provided). Animals were not stimulated otherwise. Animals and Treatment. […] Bladders were emptied manually and animals were left in their cage without other interventions with food and water ad libitum until testing. Mice received a single injection (i.p.) of either 8-OHDPAT (5-HT1A/7); 5-CT (5-HT1A/7 agonist); buspirone (5-HT1A agonist); TFMPP (5-HT1B/2C agonist); quipazine (5-HT2B/2C); m-CPP (5-HT2B/2C agonist); SR-57227A (5-HT3) one week post-spinalization. […] Hindlimb movement recording. […] A harness was put around the torso and the waist either to completely suspend animals (air-stepping) or to maintain them in front of the camera on the treadmill (not weight support was provided). Animals were not stimulated otherwise. Locomotor-like movements were defined as rhythmic flexions and extensions occurring in both hindlimbs alternatively. Body weight support and plantar foot placement were facultative and therefore not required to be counted as locomotor-like (LM). In turn, non-locomotor movements (NLM) were defined as non-bilaterally alternating hindlimb movements most often including spasms, kicks, uncoordinated or unilateral movements, etc. In some cases, qualitative assessment methods were used to evaluate the level of induced hindlimb movements. The BBB locomotor scale (Basso, Bresnahan and Beattie, Exp Neurol 1996) and the AOB motor […], Orsal and Barthe, Eur J Neurosci 2002) were also occasionally used.

[4] = tested on: paraplegic mice (lumbar spinal cord circuitry for hindlimb locomotion); assay: Hindlimb movement generation (LM/NLM) on a motor-driven treadmill in complete spinal cord transected mice
Description: (§1) Animals and Treatment Thirty-two (n=32) male or female adult CD1 mice weighing 30-40 grams were tested prior to the study (Charles River Laboratory, St-Constant, Canada). The experiment was conducted in a Canadian Council on Animal Care approved facility in accordance with the CCAC Guide for Care and Use of Experimental Animals. Animals were spinalized 7-9 days prior to testing. A complete transection of the spinal cord was performed intervertebrally between the 9th and 10th vertebrae in isoflurane (2.5%) anesthetized animals. Complete spinalization was confirmed by 1) full paralysis of the hindlimbs, 2) post-mortem examination of the spinal cord microscopically and, in some cases, 3) staining transverse or sagittal spinal cord sections with luxol fast blue/cresyl violet for myelinated axons and nissl substance respectively. All mice received pre-operative care and post-operative care including lactate-Ringer's solution (2 ml/day, s.c.), analgesic (buprenorphine 0.2 mg/kg/day, s.c.) and antibiotic (baytril 5 mg/kg/day, s.c.). Bladders were emptied manually and animals were left in their cage without other interventions with food and water ad libitum until testing.
Hindlimb movement recording. Hindlimb movements were filmed (digital video camera 3 Com Home-connect, 30 frames/sec), 1) immediately prior to injection and, 2) at fixed delays after injection in animals placed on a treadmill running at a speed of 8-10 cm/sec (treadmill condition). A harness was put around the torso and the waist to maintain them in front of the camera on the treadmill (not weight support was provided). Animals were not stimulated otherwise. Hindlimb movements were assessed either as locomotor-like movements (LM) or non-locomotor movements (NLM) Locomotor-like movements were defined as rhythmic flexions and extensions occurring in both hindlimbs alternatively. Body weight support and plantar foot placement were facultative and therefore not required to be counted as locomotor-like (LM). In turn, non-locomotor movements (NLM) were defined as non-bilaterally alternating hindlimb movements most often including spasms, kicks, uncoordinated or unilateral movements, etc. Levels of weight supported movements and of plantar foot placements were assessed as either none, occasional, or frequent.
as §1, with “and Treatment. Twenty-nine (n=29)” for “and Treatment Thirty-two (n=32)”, “male and” for “male or”, “grams” for “grams were tested”, “spinalized 7” for “spinalized 7-9”, “(baytril” for “(baytril 5”
Hindlimb movement recording, Hindlimb movements were filmed (digital video camera 3 Com Home-connect, 30 frames/sec) immediately prior to injection and at fixed delays after injection in animals suspended (air-stepping condition) or placed on a treadmill running at a speed of 8-10 cm/sec (treadmill condition). A harness was put around the torso and the waist either to completely suspend animals (air-stepping) or to maintain them in front of the camera on the treadmill (not weight support was provided).

[5] = single injection 0.5-2.5 mg/kg, i.p., CD1 mice 6-7 days post-spinalization, treadmill
[6] = L-DOPA 40-100 mg/kg, treadmill, n=29
[7] = i.p. prior to 8-OH-DPAT, both strains

CN1CCc2cccc3c2[C@H]1Cc1ccc(O)c(O)c1-3 [apomorphine, (R)-5,6,6a,7-tetrahydro-6-methyl-4H-dibenzo-[de,g]quinoline-10,11-diol]
mice in which a mixture of LM and NLM was induced [1, 5]: 11%

Cc1cccc(C(=O)NCN2CCN(c3ccccc3C#N)CC2)c1 [PD168077]
induction of LM [1, 5]: did not induce LM

CCCN(CCC)C1CCc2cccc(O)c2C1 (stereo not drawn) [8-OH-DPAT, 8-hydroxy-2-(di-n-propylamino)tetralin]
induction of hindlimb movements ([2]; 8-OH-DPAT 1 mg/kg, i.p., CD1 and C57BI/6 mice seven days after transection): induced hindlimb alternated movements in most mice | weight supported steps or plantar foot placements ([2]; 8-OH-DPAT 1 mg/kg, i.p., seven days after transection): not found | doses at which all-or-none-like effects (LM and NLM) start ([1]; 8-OH-DPAT i.p., spinal mice on a treadmill (FIG. 18), n=28): ≥ 1 mg/kg

Clc1cccc(N2CCNCC2)c1 [m-CPP]
induction of LM ([2]; i.p.): not to induce LM | induction of NLM ([2]; i.p.): dose-dependent non-locomotor movements were found

FC(F)(F)c1cccc(N2CCNCC2)c1 [TFMPP]
induction of LM ([2]; i.p.): not to induce LM | induction of NLM ([2]; i.p.): induced only NLM

N[C@@H](Cc1ccc(O)c(O)c1)C(=O)O [L-DOPA, L-(−)-2-amino-3-(3,4-dihydroxyphenyl)propionic acid]
hindlimb movement generation in air-stepping ([3]; 40 mg/kg L-DOPA, 1-week paraplegic mouse, 20 min post-injection (no effect either 30 or 45 min later)): No hindlimb movements | hindlimb movement generation in air-stepping ([3]; 80 mg/kg L-DOPA, 28 min after injection): No movements | hindlimb movement generation in air-stepping ([3]; 30-100 mg/kg L-DOPA i.p. with benserazide (1:4), CD1 mice 7 days post-spinalization): did not induce hindlimb movements | weight bearing locomotor capabilities ([4]; L-DOPA 40-100 mg/kg, treadmill, all cases): no weight bearing locomotor capabilities | LM per min (average) [4, 6]: 6.1±1.3 per min | NLM per min (average) [4, 6]: 11.2±1.8 per min | uneffective doses on treadmill ([4]; L-DOPA i.p. with benserazide (1:4), CD1 mice 7 days post-spinalization, treadmill 8-10 cm/sec): < 40 mg/kg | time following injection at which hindlimb movements began ([4]; one mouse (FIG. 6): 40 mg/kg L-DOPA, treadmill): 20 min

CCCN(CCC)C1CCc2ccc(O)cc2C1 (stereo not drawn) [7-OH-DPAT]
induction of LM [1, 5]: did not induce LM

COc1ccccc1N1CCN(CC(C(=O)NC(C)(C)C)c2ccccc2)CC1 (stereo not drawn) [WAY100,135]
effect of 5-HT1A antagonist pretreatment on 8-OH-DPAT-induced LM [2, 7]: significantly reduced

CC1CCN(CC[C@H]2CCCN2S(=O)(=O)c2cccc(O)c2)CC1 [SB269970]
effect of 5-HT7 antagonist pretreatment on 8-OH-DPAT-induced movement frequencies, amplitudes and angular excursions ([2]; SB269970 2-15 mg/kg, i.p. prior to 8-OH-DPAT, both strains): importantly reduced

NC[C@@H]1O[C@H](c2ccccc2)Cc2c1ccc(O)c2O [A-68930]
mice in which a mixture of LM and NLM was induced [1, 5]: 28%

Cl.NC1CCN(c2cccc(Cl)n2)CC1 [SR-57227A]
type of hindlimb movements induced ([2]; SR-57227A i.p., air-stepping, open-field or treadmill): can induce only NLM | scores with the BBB and Antri motor scales ([2]; SR-57227A, FIG. 16): very low scores | score on Basso, Beattie and Bresnahan (1996) locomotor scale ([2]; SR-57227A, FIG. 16A): Non-significant scores | locomotor-like movements per min on a treadmill ([4]; SR-57227A, treadmill, in some animals): approx. 2.5 per min

Oc1cc2c(c(Cl)c1O)CCNCC2c1ccccc1 (stereo not drawn) [SKF-81297]
ACOS (averaged combined score = NLM+[LM×2]) [1, 5]: > 8 | mice in which a mixture of LM and NLM was induced [1, 5]: 71%

COc1ccccc1N1CCN(CCN(C(=O)C2CCCCC2)c2ccccn2)CC1 [WAY100,635]
effect of 5-HT1A antagonist pretreatment on 8-OH-DPAT-induced LM [2, 7]: significantly reduced

c1ccc2nc(N3CCNCC3)ccc2c1 [quipazine]
doses inducing some rhythmic LM in air-stepping ([3]; quipazine i.p., air-stepping condition, FIG. 14): above 0.8 mg/kg | ineffective doses ([3]; quipazine i.p., air-stepping, FIG. 14H): below 0.8 mg/kg | times less LM than 8-OH-DPAT tested in similar conditions ([2]; quipazine, FIG. 9 vs. FIG. 15): 2-3 times | weight-supported stepping and plantar foot placement ([2]; quipazine, air-stepping or treadmill 8-10 cm/sec): No weight-supported stepping and plantar foot placement were found | number of movements of each type (LM, NLM) ([2]; quipazine, treadmill as well as air-stepping, FIG. 15): 8-15
